In ChEMBL document CHEMBL1127417, “Multisubstrate inhibition of 4-hydroxybenzoate 3-monooxygenase” (J Med Chem, 1994):

Columns and labels:
[1] = target: T1, p-hydroxybenzoate hydroxylase (Pseudomonas fluorescens, UniProt P00438); test: Inhibitory concentration against p-hydroxybenzoate hydroxylase (PHBH) from Pseudomonas fluorescence
[2] = target: T1, p-hydroxybenzoate hydroxylase; test: Binding affinity against p-hydroxybenzoate hydroxylase (PHBH) from Pseudomonas fluorescence competing with p-hydroxy benzoic acid
[3] = target: T1, p-hydroxybenzoate hydroxylase; test: Binding affinity against p-hydroxybenzoate hydroxylase (PHBH) from Pseudomonas fluorescence competing with NADPH

T1 sequence (P00438 whole entry): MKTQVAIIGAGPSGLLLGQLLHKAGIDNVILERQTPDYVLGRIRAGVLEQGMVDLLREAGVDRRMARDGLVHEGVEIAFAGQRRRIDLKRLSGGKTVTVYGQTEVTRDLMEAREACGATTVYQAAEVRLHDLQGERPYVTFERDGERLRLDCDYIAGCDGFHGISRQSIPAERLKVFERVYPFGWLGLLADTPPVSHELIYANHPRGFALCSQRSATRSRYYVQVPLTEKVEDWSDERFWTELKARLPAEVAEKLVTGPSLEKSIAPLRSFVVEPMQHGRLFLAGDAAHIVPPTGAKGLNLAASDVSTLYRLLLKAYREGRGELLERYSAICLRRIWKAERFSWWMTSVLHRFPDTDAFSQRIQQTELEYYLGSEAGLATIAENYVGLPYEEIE

Row | Compound | IC50 [1] | Ki [2] | Ki [3]
1 | O=C(O)c1ccc(O)c(OCc2ccccc2)c1 | 100000 nM |  | 
2 | O=C(O)c1ccc(O)cc1OCc1ccccc1 |  | 59 nM | 69 nM
